PubChem BioAssay AID256 (DTP/NCI, 2004)
Inconclusive results and toxic doses are left out. How the source made its calls: active means survival T/C of 150% or more; inactive means T/C below 125% in these data.

Test system: CD2F1 mice, L1210 leukemia ip, survival T/C
Assay: NCI In Vivo Anticancer Drug Screen. Data for tumor model L1210 Leukemia (intraperitoneal) in CD2F1 (CDF1) mice
Conditions: higher = longer survival
Summary of the method: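 Each value reflects a quotient of treated over vehicle control outcomes in mice with a transplanted tumor.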

[1] = endpoint: mean survival time, dose: 100.0 mg/kg/injection, schedule: Q01DX001 (ip), vehicle: saline with Tween-80
[2] = endpoint: mean survival time, dose: 100.0 mg/kg/injection, schedule: Q04DX003 (ip), vehicle: saline with Tween-80
[3] = endpoint: mean survival time, dose: 200.0 mg/kg/injection, schedule: Q04DX003 (ip), vehicle: saline with Tween-80
[4] = endpoint: mean survival time, dose: 400.0 mg/kg/injection, schedule: Q04DX003 (ip), vehicle: saline with Tween-80
[5] = endpoint: mean survival time, dose: 100.0 mg/kg/injection, schedule: Q04DX003 (ip), vehicle: Klucel (hydroxypropylcellulose) (HPC)
[6] = endpoint: mean survival time, dose: 200.0 mg/kg/injection, schedule: Q04DX003 (ip), vehicle: Klucel (hydroxypropylcellulose) (HPC)
[7] = endpoint: mean survival time, dose: 400.0 mg/kg/injection, schedule: Q04DX003 (ip), vehicle: Klucel (hydroxypropylcellulose) (HPC)
[8] = endpoint: mean survival time, dose: 200.0 mg/kg/injection, schedule: Q01DX009 (ip), vehicle: saline with Tween-80
[9] = endpoint: mean survival time, dose: 100.0 mg/kg/injection, schedule: Q01DX009 (ip), vehicle: saline with Tween-80
[10] = endpoint: mean survival time, dose: 400.0 mg/kg/injection, schedule: Q01DX009 (ip), vehicle: saline with Tween-80

Measured: T/C

O=C(CCCC(Br)c1ccccc1)c1ccccc1 (stereo unspecified)
inactive: [1] 90 % of control | endpoint: mean survival time, dose: 400.0 mg/kg/injection, schedule: Q01DX001 (ip), vehicle: saline with Tween-80 95 % of control

O=C1c2ccccc2C(=O)N1CC(O)COc1ccccc1 (stereo unspecified)
inactive: [2] 94 % of control | [3] 101 % of control | [4] 103 % of control

Cc1ccc2nc(-c3ccccc3N)[nH]c2c1
inactive: [2] 87 % of control | [3] 92 % of control | [4] 89 % of control

O=C1N(C2CCCCC2)CC2C(c3cccnc3)NNC12O (stereo unspecified)
inactive: [1] 97 % of control | endpoint: mean survival time, dose: 200.0 mg/kg/injection, schedule: Q01DX001 (ip), vehicle: saline with Tween-80 87 % of control

NC(=O)N1c2c(nc(N)[nH]c2=O)NCC1CNc1ccc(C(=O)NC(CCC(=O)O)C(=O)O)cc1 (stereo unspecified)
inactive: endpoint: mean survival time, dose: 100.0 mg/kg/injection, schedule: Q01DX001 (ip), vehicle: sodium bicarbonate 102 % of control | endpoint: mean survival time, dose: 200.0 mg/kg/injection, schedule: Q01DX001 (ip), vehicle: sodium bicarbonate 97 % of control | endpoint: mean survival time, dose: 400.0 mg/kg/injection, schedule: Q01DX001 (ip), vehicle: sodium bicarbonate 96 % of control

O=C1OCCC1n1ccc(=O)[nH]c1=O (stereo unspecified)
inactive: [5] 102 % of control | [6] 96 % of control | [7] 102 % of control

CN(C)c1ccc(/C=C/c2nc3ccccc3o2)cc1
inactive: [5] 96 % of control | [6] 100 % of control | [7] 102 % of control

OCc1ccc(Cl)c(Cl)c1
inactive: [2] 97 % of control | [3] 102 % of control | [4] 96 % of control

CCC(/C=C/C1OC(=O)C=CC1C)=C\C(C)C/C=C/C(C)=C/C(C)C(=O)C(C)C(O)C(C)C/C(C)=C/C(=O)O (stereo unspecified)
inactive: endpoint: median survival time, dose: 6.25 micrograms/kg/injection, schedule: Q01DX005 (ip), vehicle: saline + alcohol 120 % of control | endpoint: median survival time, dose: 12.5 micrograms/kg/injection, schedule: Q01DX005 (ip), vehicle: saline + alcohol 119 % of control | endpoint: median survival time, dose: 12.5 micrograms/kg/injection, schedule: Q01DX009 (ip), vehicle: saline + alcohol 101 % of control | endpoint: median survival time, dose: 25.0 micrograms/kg/injection, schedule: Q01DX005 (ip), vehicle: saline + alcohol 120 % of control | endpoint: median survival time, dose: 25.0 micrograms/kg/injection, schedule: Q01DX009 (ip), vehicle: saline + alcohol 101 % of control | endpoint: median survival time, dose: 50.0 micrograms/kg/injection, schedule: Q01DX009 (ip), vehicle: saline + alcohol 115 % of control

CC(=O)OC1C=CC(OC(C)=O)O1 (stereo unspecified)
inactive: endpoint: mean survival time, dose: 0.75 mg/kg/injection, schedule: Q01DX009 (ip), vehicle: saline with Tween-80 103 % of control | endpoint: mean survival time, dose: 1.5 mg/kg/injection, schedule: Q01DX009 (ip), vehicle: saline with Tween-80 101 % of control | endpoint: mean survival time, dose: 1.88 mg/kg/injection, schedule: Q04DX003 (ip), vehicle: saline 96 % of control | endpoint: mean survival time, dose: 3.0 mg/kg/injection, schedule: Q01DX009 (ip), vehicle: saline with Tween-80 95 % of control | endpoint: mean survival time, dose: 3.75 mg/kg/injection, schedule: Q04DX003 (ip), vehicle: saline 98 % of control | endpoint: mean survival time, dose: 7.5 mg/kg/injection, schedule: Q01DX001 (ip), vehicle: saline 106 % of control | endpoint: mean survival time, dose: 7.5 mg/kg/injection, schedule: Q04DX003 (ip), vehicle: saline 102 % of control

C=CCc1ccc(OC(=O)Nc2ccc(C)c([N+](=O)[O-])c2)c(OC)c1
inactive: endpoint: mean survival time, dose: 12.5 mg/kg/injection, schedule: Q01DX009 (ip), vehicle: saline with Tween-80 98 % of control | endpoint: mean survival time, dose: 25.0 mg/kg/injection, schedule: Q01DX009 (ip), vehicle: saline with Tween-80 103 % of control | endpoint: mean survival time, dose: 50.0 mg/kg/injection, schedule: Q01DX009 (ip), vehicle: saline with Tween-80 98 % of control | [8] 88 % of control

c1ccc(CN2CN(Cc3ccccc3)CN(Cc3ccccc3)C2)cc1
inactive: [9] 100 % of control | [2] 89 % of control | [8] 100 % of control | [3] 89 % of control | [10] 97 % of control | [4] 98 % of control

CCCCCCCC(=O)Nc1cc(C)ccc1C
inactive: [9] 94 % of control | [2] 98 % of control | [8] 94 % of control | [3] 97 % of control | [10] 98 % of control | [4] 98 % of control
